Laboratory results as given in US10219513B2, “Safening 4-amino-3-chloro-6-(4-chloro-2-fluoro-3-methoxyphenyl)-5-fluoropyridine-2-carboxylic acid compositions in Brassica species and methods of use thereof” (Dow AgroSciences LLC, priority 2016, dated 2019).

Columns and labels:
[1] = test system: Brassica napus (winter oilseed rape, BRSNW); assay: Greenhouse postemergence application, visual injury after 20-22 d, BRSNW
Description: (§1) Seeds of the desired test plant species were planted in Sun Gro MetroMix® 306 planting mixture, which typically has a pH of 6.0 to 6.8 and an organic matter content of about 30 percent, in plastic pots with a surface area of 103.2 square centimeters (cm^2). […] The plants were grown for 7-36 days (d) in a greenhouse with an approximate 14-hour (h) photoperiod which was maintained at about 23° C. during the day and 22° C. during the night. Nutrients and water were added on a regular basis and supplemental lighting was provided with overhead metal halide 1000-Watt lamps as necessary. The plants were employed for testing when they reached the second or third true leaf stage.
(§2) An aliquot of formulated benzyl 4-amino-3-chloro-6-(4-chloro-2-fluoro-3-methoxyphenyl)-5-fluoropyridine-2-carboxylate (florpyrauxifen-benzyl; 300 grams active ingredient per liter (g ai/L) suspension concentrate (SC)) was placed in a 25 mL glass vial and diluted in a volume of 1.25% (v/v) aqueous Agri-dex crop oil concentrated to obtain a stock solution. […] The concentrated stock solutions were diluted with an aqueous mixture of 1.25% v/v of aqueous Agri-dex crop oil concentrate to provide the appropriate application rates. Compound requirements are based upon a 12 milliliter (mL) application volume at a rate of 187 liters per hectare (L/ha). Stock solutions of the formulated materials were prepared following the same procedure. Spray solutions of the compound mixtures were prepared by adding the stock solutions to the appropriate amount of dilution solution to form a 12 mL spray solution. Formulated compounds were applied to the plant material with an overhead Mandel track sprayer equipped with 8002E nozzles calibrated to deliver 187 L/ha over an application area of 0.503 square meters (m^2) at a spray height of 18 inches (43 centimeters (cm)) above average plant canopy. Control plants were sprayed in the same manner with the solvent blank.
(§3) The treated plants and control plants were placed in a greenhouse as described above and watered by sub-irrigation to prevent wash-off of the test compounds. After 20-22 d, the condition of the test plants as compared with that of the control plants was determined visually and scored on a scale of 0 to 100 percent where 0 corresponds to no injury and 100 corresponds to complete kill. Colby's equation was used to determine the herbicidal effects expected from the mixtures.
(§4) Benzyl 4-amino-3-chloro-6-(4-chloro-2-fluoro-3-methoxyphenyl)-5-fluoropyridine-2-carboxylate (florpyrauxifen-benzyl, 300 g ai/L SC) was combined in two-, three-, and four-way mixtures with one or more of the following: clopyralid-olamine (as Lontrel™ 35A Herbicidal Concentrate), quinclorac (as Facet 75DF), isoxadifen-ethyl (100 g/L SC), cloquintocet-mexyl (120 g/L EC) or mefenpyr-diethyl (as mefenpyr-diethyl 15WP). The mixtures were applied to kale/Chinese kale (Brassica alboglabra, BRSAG), Juncea canola or brown mustard (Brassica juncea, BRSJU), rutabaga (Brassica napus var. napobrassica, BRSNA), all varieties of canola and oilseed rape (Brassica napus, BRSNN), Nexera™ canola (Brassica napus, BRSNN-NEX), winter oilseed rape (Brassica napus, BRSNW), Roundup Ready® canola (Brassica napus, RR-BRSNN), and turnip or Polish canola (Brassica rapa, BRSRR), and the phytotoxicity of the compositions was measured.
(§5) Colby's equation was used to determine the herbicidal effects expected from the mixtures evaluated in the described trials (Colby, S. R. Calculation of the synergistic and antagonistic response of herbicide combinations. Weeds 1967, 15, 20-22.).
(§6) The following equation was used to calculate the expected activity of mixtures containing two active ingredients, A and B: Expected=A+B−(A×B/100) • A=observed efficacy of active ingredient A at the same concentration as used in the mixture; • B=observed efficacy of active ingredient B at the same concentration as used in the mixture.

[2] = test system: Brassica napus (Roundup Ready canola, RR-BRSNN); assay: Greenhouse postemergence application, visual injury after 20-22 d, RR-BRSNN
Description: as §1, §2, §3, §4, §5, §6

[3] = test system: Brassica napus var. napobrassica (rutabaga, BRSNA); assay: Greenhouse postemergence application, visual injury after 20-22 d, BRSNA
Description: as §1, §2, §3, §4, §5, §6

[4] = test system: Brassica napus (Nexera canola, BRSNN-NEX); assay: Greenhouse postemergence application, visual injury after 20-22 d, BRSNN-NEX
Description: as §1, §2, §3, §4, §5, §6

[5] = test system: Brassica alboglabra (kale/Chinese kale, BRSAG); assay: Greenhouse postemergence application, visual injury after 20-22 d, BRSAG
Description: as §1, §2, §3, §4, §5, §6

[6] = isoxadifen-ethyl 5 g ai/ha alone
[7] = isoxadifen-ethyl 10 g ai/ha alone
[8] = isoxadifen-ethyl 20 g ai/ha alone
[9] = isoxadifen-ethyl 40 g ai/ha alone
[10] = postemergence application, greenhouse, application rate (g ai/ha) varies

CCOC(=O)C1=NOC(c2ccccc2)(c2ccccc2)C1 [Isoxadifen-ethyl, ethyl 4,5-dihydro-5,5-diphenyl-1,2-oxazole-3-carboxyalte]
0%: % Visual Injury Obs ([1]; BRSNW, 5 g ai/ha) | % Visual Injury Obs ([1]; BRSNW, 10 g ai/ha) | % Visual Injury Obs ([1]; BRSNW, 20 g ai/ha) | % Visual Injury Obs ([1]; BRSNW, 40 g ai/ha) | Obs % visual injury ([1]; BRSNW, partner alone 5 g ai/ha) | Obs % visual injury ([1]; BRSNW, partner alone 10 g ai/ha) | Obs % visual injury ([1]; BRSNW, partner alone 20 g ai/ha) | Obs % visual injury ([1]; BRSNW, partner alone 40 g ai/ha) | % Visual Injury Obs [1, 6] | % Visual Injury Obs [1, 7] | % Visual Injury Obs [1, 8] | % Visual Injury Obs [1, 9] | % Visual Injury BRSNW Obs [1, 10] | % Visual Injury Obs ([2]; RR-BRSNN, 5 g ai/ha) | % Visual Injury Obs ([2]; RR-BRSNN, 10 g ai/ha) | % Visual Injury Obs ([2]; RR-BRSNN, 20 g ai/ha) | % Visual Injury Obs ([2]; RR-BRSNN, 40 g ai/ha) | Obs % visual injury ([2]; RR-BRSNN, partner alone 5 g ai/ha) | Obs % visual injury ([2]; RR-BRSNN, partner alone 10 g ai/ha) | Obs % visual injury ([2]; RR-BRSNN, partner alone 20 g ai/ha) | Obs % visual injury ([2]; RR-BRSNN, partner alone 40 g ai/ha) | % Visual Injury Obs [2, 6] | % Visual Injury Obs [2, 7] | % Visual Injury Obs [2, 8] | % Visual Injury Obs [2, 9] | % Visual Injury RR-BRSNN Obs [2, 10] | % Visual Injury Obs ([3]; BRSNA, 5 g ai/ha) | % Visual Injury Obs ([3]; BRSNA, 10 g ai/ha) | % Visual Injury Obs ([3]; BRSNA, 20 g ai/ha) | % Visual Injury Obs ([3]; BRSNA, 40 g ai/ha) | Obs % visual injury ([3]; BRSNA, partner alone 5 g ai/ha) | Obs % visual injury ([3]; BRSNA, partner alone 10 g ai/ha) | Obs % visual injury ([3]; BRSNA, partner alone 20 g ai/ha) | Obs % visual injury ([3]; BRSNA, partner alone 40 g ai/ha) | % Visual Injury Obs [3, 6] | % Visual Injury Obs [3, 7] | % Visual Injury Obs [3, 8] | % Visual Injury Obs [3, 9] | % Visual Injury BRSNA Obs [3, 10] | % Visual Injury Obs ([4]; BRSNN-NEX, 5 g ai/ha) | % Visual Injury Obs ([4]; BRSNN-NEX, 10 g ai/ha) | % Visual Injury Obs ([4]; BRSNN-NEX, 20 g ai/ha) | % Visual Injury Obs ([4]; BRSNN-NEX, 40 g ai/ha) | Obs % visual injury ([4]; BRSNN-NEX, partner alone 5 g ai/ha) | Obs % visual injury ([4]; BRSNN-NEX, partner alone 10 g ai/ha) | Obs % visual injury ([4]; BRSNN-NEX, partner alone 20 g ai/ha) | Obs % visual injury ([4]; BRSNN-NEX, partner alone 40 g ai/ha) | % Visual Injury Obs [4, 6] | % Visual Injury Obs [4, 7] | % Visual Injury Obs [4, 8] | % Visual Injury Obs [4, 9] | % Visual Injury BRSNN-NEX Obs [4, 10] | % Visual Injury Obs ([5]; BRSAG, 5 g ai/ha) | % Visual Injury Obs ([5]; BRSAG, 10 g ai/ha) | % Visual Injury Obs ([5]; BRSAG, 20 g ai/ha) | % Visual Injury Obs ([5]; BRSAG, 40 g ai/ha) | Obs % visual injury ([5]; BRSAG, partner alone 5 g ai/ha) | Obs % visual injury ([5]; BRSAG, partner alone 10 g ai/ha) | Obs % visual injury ([5]; BRSAG, partner alone 20 g ai/ha) | Obs % visual injury ([5]; BRSAG, partner alone 40 g ai/ha) | % Visual Injury Obs [5, 6] | % Visual Injury Obs [5, 7] | % Visual Injury Obs [5, 8] | % Visual Injury Obs [5, 9] | % Visual Injury BRSAG Obs [5, 10]
